Measurements taken from patent publication US8314092B2, “Substituted [(5H-pyrrolo[2,1-c][1,4]benzodiazepin-11-yl)piperazin-1-yl]-2,2-dimethylpropanoic acid compounds as dual activity H1 inverse agonists/5-HT2A antagonists” (Eli Lilly and Company, priority 2011, dated 2012).
pKi: −log10 of the molar value. Where a name gives a salt, the structure may show the parent alone.

What was measured:
[1] = molecular target: Dopamine Transporter (Homo sapiens, UniProt Q01959); assay: Dopamine transporter assay; assay type: binding; conditions: dihydrochloride
Excerpt: (§1) Further, the compounds of the invention may be tested in binding assays and functional activity assays by well known methods for other physiologically important receptors such as, but not limited to, the hERG channel, other serotonin receptors (specifically 5-HT1A, 5-HT1B, 5-HT1D, 5-HT1E, 5-HT1F receptors, lack of agonist activity at 5-HT2B receptors, 5-HT2C, 5-HT4, 5-HTS, 5-HT6, and 5-HT7 receptors), muscarinic receptors, dopaminergic receptors (specifically D1, D2, and D3), GABAA receptors, adrenergic receptors and monoamine transporters. Certain exemplified compounds are tested at these receptors and are shown to lack significant activity.

[2] = molecular target: T1, recombinant 5-HT2A receptor (human) (Homo sapiens, UniProt P28223); assay: 5-HT2A competition binding assay ([3H]-Ketanserin SPA)
T1 construct: expressed in transfected cells
Method: [^3H]-Ketanserin binding experiments are carried out in SPA 96-well format. Membranes used in this assay are prepared from AV-12 cells stably expressing recombinant 5-HT2A receptor (human). The incubation is initiated by the addition of a mixture of WGA YSi SPA beads (1 mg/well, Perkin Elmer (MA, USA), RPNQ0011) and 2 μg membranes to assay buffer (67 mM Tris, 0.5 mM EDTA; pH 7.6) containing 3.1 nM [^3H]-Ketanserin and varying concentrations of the test compound (10 point concentration response curves). Non-specific binding is determined in the presence of 20 μM 1-(1-Naphthyl)piperazine. Samples were incubated for four hours at room temperature (22° C.) and then read in a Microbeta Trilux.
Curves are evaluated using a 4-parameter logistic nonlinear equation to obtain the concentration of competitor causing 50% inhibition of radioligand binding (IC50). Equilibrium dissociation constants (Ki) are calculated according to the equation Ki=IC50/(1+L/Kd), where L equals the concentration of radioligand used in the experiment and Kd equals the equilibrium dissociation constant of the radioligand for the receptor, determined from standard saturation analysis or homologous competition experiments. Reported values for Ki, where n values are indicated, are shown as geometric mean±the standard error of the mean (SEM), with the number of replicate determinations indicated by n. […]

[3] = molecular target: Dopamine D2 (Homo sapiens, UniProt P14416); assay: Dopamine D2 binding
Excerpt: as §1

[4] = molecular target: 5-HT7 (Homo sapiens, UniProt P34969); assay: 5-HT7 binding
Excerpt: as §1

Dopamine Transporter, sequence (Q01959 whole entry): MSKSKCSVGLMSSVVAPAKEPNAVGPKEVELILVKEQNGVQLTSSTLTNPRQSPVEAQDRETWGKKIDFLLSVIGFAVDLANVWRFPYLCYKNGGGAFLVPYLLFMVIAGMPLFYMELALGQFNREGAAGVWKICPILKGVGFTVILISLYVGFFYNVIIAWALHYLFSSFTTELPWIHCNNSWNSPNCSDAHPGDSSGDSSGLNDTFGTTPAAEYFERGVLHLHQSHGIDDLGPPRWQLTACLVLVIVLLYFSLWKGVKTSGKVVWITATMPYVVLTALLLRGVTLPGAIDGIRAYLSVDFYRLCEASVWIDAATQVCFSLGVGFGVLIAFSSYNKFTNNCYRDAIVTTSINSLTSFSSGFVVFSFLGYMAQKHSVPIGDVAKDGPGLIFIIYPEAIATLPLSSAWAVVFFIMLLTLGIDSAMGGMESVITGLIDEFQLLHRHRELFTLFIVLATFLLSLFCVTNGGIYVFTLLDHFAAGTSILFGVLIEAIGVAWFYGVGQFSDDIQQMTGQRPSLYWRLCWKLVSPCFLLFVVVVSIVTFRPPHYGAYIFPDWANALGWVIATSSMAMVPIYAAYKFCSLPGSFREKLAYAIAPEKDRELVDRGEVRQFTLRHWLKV
5-HT7, sequence (P34969 whole entry, species assumed): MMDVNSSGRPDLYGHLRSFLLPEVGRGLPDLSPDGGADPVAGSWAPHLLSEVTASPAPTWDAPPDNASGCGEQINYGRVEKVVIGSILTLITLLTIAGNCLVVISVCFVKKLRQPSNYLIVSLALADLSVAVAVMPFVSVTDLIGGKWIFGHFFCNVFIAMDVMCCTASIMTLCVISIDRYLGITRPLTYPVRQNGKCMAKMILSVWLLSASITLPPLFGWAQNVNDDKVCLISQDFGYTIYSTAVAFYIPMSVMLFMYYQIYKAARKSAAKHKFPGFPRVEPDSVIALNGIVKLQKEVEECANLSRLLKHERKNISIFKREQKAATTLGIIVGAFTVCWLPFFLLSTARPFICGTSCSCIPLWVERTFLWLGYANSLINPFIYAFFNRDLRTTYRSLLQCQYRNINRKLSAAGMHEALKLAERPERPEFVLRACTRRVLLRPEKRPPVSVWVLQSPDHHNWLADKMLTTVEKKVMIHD
T1 sequence (P28223 whole entry): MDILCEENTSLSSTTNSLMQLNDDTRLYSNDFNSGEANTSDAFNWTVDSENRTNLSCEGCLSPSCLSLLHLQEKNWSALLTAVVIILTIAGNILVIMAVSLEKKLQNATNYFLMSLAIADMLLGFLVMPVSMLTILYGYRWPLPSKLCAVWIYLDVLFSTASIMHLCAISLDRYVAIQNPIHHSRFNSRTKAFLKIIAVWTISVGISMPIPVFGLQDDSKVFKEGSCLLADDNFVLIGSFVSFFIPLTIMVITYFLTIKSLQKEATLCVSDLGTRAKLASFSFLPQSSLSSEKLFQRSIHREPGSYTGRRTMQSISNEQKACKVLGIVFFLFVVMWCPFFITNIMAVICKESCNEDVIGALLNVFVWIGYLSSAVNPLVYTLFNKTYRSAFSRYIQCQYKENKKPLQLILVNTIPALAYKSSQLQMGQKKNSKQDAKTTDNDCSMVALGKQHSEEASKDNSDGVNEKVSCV
Dopamine D2, sequence (P14416 whole entry): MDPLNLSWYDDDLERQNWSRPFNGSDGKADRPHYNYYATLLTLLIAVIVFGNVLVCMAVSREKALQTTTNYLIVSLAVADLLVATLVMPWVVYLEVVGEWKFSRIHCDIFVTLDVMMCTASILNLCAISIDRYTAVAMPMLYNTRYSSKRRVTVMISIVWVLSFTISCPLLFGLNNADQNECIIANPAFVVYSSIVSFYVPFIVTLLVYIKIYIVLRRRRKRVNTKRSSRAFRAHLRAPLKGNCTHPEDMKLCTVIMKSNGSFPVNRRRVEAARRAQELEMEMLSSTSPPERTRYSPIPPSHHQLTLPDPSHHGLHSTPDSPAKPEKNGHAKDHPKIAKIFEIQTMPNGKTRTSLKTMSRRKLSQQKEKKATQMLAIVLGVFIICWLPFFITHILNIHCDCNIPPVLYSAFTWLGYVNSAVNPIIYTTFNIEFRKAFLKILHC

With `Cc1cc2n(c1)Cc1cc(Cl)ccc1N=C2N1CCN(CC(C)(C)C(=O)O)CC1` [Example 13, 3-[4-(7-Chloro-2-methyl-5H-pyrrolo[2,1-c][1,4]benzodiazepin-11-yl)piperazin-1-yl]-2,2-dimethylpropanoic acid dihydrochloride] the “Dopamine Transporter” value [1] was >880, the pKi [2] was 7.20 and the pKi [3] was 5.47. For the same compound, the pKi [4] was < 5.40.
